Tests used:
[1] = system: Jack soybean plants (nontransgenic, AXN2, AXMI031); test: Plant height of soybean plants in the SCN pot test; type: in vivo
Procedure: (§1) Two tests were planted with Jack (an SCN resistant soybean variety with PI 88788 resistance) and two genetically modified Jack varieties (AXN2 and AXMI031) known to produce a nematicidal protein. The seed were treated with a color/coating base or the same base plus one of two different rates of fluopyram (experiment 1 used 0.075 mg fluopyram/seed and experiment 2 used 0.15 mg fluopyram/seed). The SCN used to inoculate both tests were collected from an inbred colony (OP50) with the ability to overcome PI 88788 resistance.
(§2) Tests were conducted as non-randomized blocks with a minimum of 10 replicates. Seed were planted in individual 4″ clay pots with coarse sand and inoculated with approximately 20,000 OP50 juveniles in ten equal inoculations beginning at planting and again approximately every third day. Plants were maintained in a germination chamber. Blocks were rotated approximately every third day to minimize potential influence of environmental variance. Two months after planting, plants were harvested and cysts were collected and counted to evaluate the efficacy of the nematicide and traits, both individually and in combination with each other.

[2] = system: SCN (inbred colony OP50, able to overcome PI 88788 resistance); test: SCN cyst count on soybean plants grown from treated seed, pot test in germination chamber; type: in vivo; details: for reduction of SCN populations: nontransgenic Jack plants, cysts counted two months after planting; for percent reduction of average number of cysts compared to Jack: base (color/coating) treatment only, trait effect
Procedure: as §1, §2

Molecule	effect on average plant height ([1]; both genetically modified varieties (Axn2, Axmi031), both experiments (0.075 and 0.15 mg/seed))	effect on average plant height ([1]; nontransgenic control Jack plants, both experiments)	reduction of SCN populations ([2]; first experiment, 0.075 mg fluopyram/seed) [%]	approximate reduction (SCN) provided by fluopyram ([2]; high rate (0.15 mg/seed), transgenic Axmi031 plants) [%]	approximate reduction (SCN) provided by fluopyram ([2]; high rate (0.15 mg/seed), transgenic Axn2 plants) [%]	approximate reduction (SCN) provided by fluopyram ([2]; low rate (0.075 mg/seed), transgenic Axmi031 plants) [%]	approximate reduction (SCN) provided by fluopyram ([2]; low rate (0.075 mg/seed), transgenic Axn2 plants) [%]	reduction of SCN populations ([2]; second experiment, 0.15 mg fluopyram/seed) [%]	percent reduction of average number of cysts compared to Jack ([2]; first experiment) [%]	percent reduction of average number of cysts compared to Jack ([2]; second experiment) [%]
O=C(NCCc1ncc(C(F)(F)F)cc1Cl)c1ccccc1C(F)(F)F [fluopyram, N-{2-[3-chloro-5-(trifluoromethyl)-2-pridinyl]ethyl}-2-(trifluoromethyl)benzamide]	increased average plant height	not having an effect	26	~40	~40	~20	~20	43	–	–
AXMI031: genetically modified Jack soybean variety known to produce a nematicidal protein (gene axmi031, Table 1) (protein, listed as Bacillus thuringiensis) MNMNNTKLNARALPSFIDYFNGIYGFATGIKDIMNMIFKTDTGGDLTLDEILKNQQLLNEISGKLDGVNGSLNDLIAQGNLNTELSKEILKIANEQNQVLNDVNNKLDAINTMLNIYLPKITSMLSDVMKQNYALSLQIEYLSRQLQEISDKLDVINLNVLINSTLTEITPSYQRIKYVNEKFDKLTFATESTLRAKQGIFNEDSFDNNTLENLTDLAELAKSITKNDVDSFEFYLHTFHDVLIGNNLFGRSALKTASELITKDEIKTSGSEIGKVYSFLIVLTSLQAKAFLTLTTCRKLLGLSDIDYTSIMNEHLNNEKNEFRDNILPALSNKFSNPSYAKTIGSDNYAKVILESEPGYALVGFEIINDPIPVLKAYKAKLKQNYQVDNQSLSEIVYLDIDKLFCPENSEQKYYTKNLTFPDGYVITKITFEKKLNNLIYEATANFYDPSTGDIDLNKKQVESTFPQTDYITMDIGDDDGIYMPLGVISETFLTPINSFGLEVDAKSKTLTLKCKSYLREYLLESDLKNKETGLIAPPNVFISNVVKNWDIEEDSLEPWVANNKNAYVDNTGGIERSKALFTQGDGEFSQFIGDKLKPNTDYIIQYTVKGKPAIYLKNKSTGYITYEDTNGNSEEFQTIAVKFTSETDLSQTHLVFKSQNGYEAWGDNFIILEAKLFETPESPELIKFNDWERFGTTYITGNELRIDHSRGGYFRQSLNIDSYSTYDLSFSFSGLWAKVIVKNSRGVVLFEKVKNNGSSYEDISESFTTASNKDGFFIELTAERTSSTFHSFRDISIKEKIE	–	–	–	–	–	–	–	–	92	88
AXN2: genetically modified Jack soybean variety known to produce a nematicidal protein (gene axn2, Table 1) (protein, AXMI-205(trun20)) MASAANAGQLGNLPGVTSMGMGYDVNGLYASPESLLGQPLFDFGGELDSIEIEGRSYTFPRSMHVHTYFHSDFKQDVSKEIEEYREKMSQHVGVSGRYKLFSASLSVDFTTTDQQLTEITYSSTREAHVLWYISLPGAATLRSMLRRDFRDDLNNPNMPAMELFKRYGPYYISEAAVGGRLDYSAASKTLKMDSSQSLSTTAEMSYKALVGEIKIEHGSEMEKQVNSFRSNSTIRLTATGGKPGMTDRILHGPDSQQAFSQWAESLLDYATLMDFSTESLQPIWALADKPERRVELEDAFPEFMKQSQQSIPKVDKVLLMDARPPMVKAGEDSGSGASEDLAVFNPSTSNGYKMVGQFGQRNHASVADGHAPIFKDLFDLGVLKAPVGWQRVWDDAGSGKSKDYACWRAIPPQGYRALGDVMMLATSGYNPPNLPDYVCVHQSLCADVQTLQNRVWWDKGTGARKDVSLWQPGAAGAVASSCFAGVPNYNNPPNSGDIERLRGSIACVKTSAIASM	–	–	–	–	–	–	–	–	20	43
